Results on 1 compound are retold here after paper PMC7370187, “Screening of an Epigenetic Drug Library Identifies 4-((hydroxyamino)carbonyl)-N-(2-hydroxyethyl)-N-Phenyl-Benzeneacetamide that Reduces Melanin Synthesis by Inhibiting Tyrosinase Activity Independently of Epigenetic Mechanisms” (International Journal of Molecular Sciences, 2020).

Test [1] concerns TYR, TYRP1, DCT and MITF protein in B16-F10 cells. The test can be described thus: Western blotting of melanogenic proteins. It is filed as cell-based, murine. The note with it: 100 nM α-MSH, 24 h, β-actin loading control. The protocol:
Western blotting was performed as previously described. Primary antibodies for TYR (#127217) was purchased from MyBioSource (San Diego, CA, USA). Primary antibodies for TYRP1 (#10443) and β-actin (#47778) were purchased from Santa Cruz Biotechnology (Santa Cruz, CA, USA). Primary antibodies for MITF (#20663) and DCT (#74073) were purchased from Abcam (Cambridge, UK). Anti-rabbit IgG (#2357) and anti-goat IgG (#2020) secondary antibodies were purchased from Santa Cruz Biotechnology. Anti-mouse IgG (#7076) secondary antibody was purchased from Cell Signaling Technology (Danvers, MA, USA). Each antibody was diluted 1 to 1000 in antibody dilution buffer containing 20 mM Tris-Cl (pH 7.5), 200 mM NaCl and 5% skim milk.
After B16-F10 cells were treated with drug and/or α-MSH, whole-cell lysates were prepared using a lysis buffer (pH 7.2) consisting of 10 mM Tris-Cl (pH 7.4), 120 mM NaCl, 25 mM KCl, 2 mM EGTA, 1 mM EDTA, 0.5% Triton X-100 and a protease inhibitor cocktail (Roche, Mannheim, Germany) for foe evaluation of TYR, TYRP1, and DCT. For MITF extraction, cells were extracted with RIPA buffer consisting of 25 mM Tris-HCl (pH 7.6), 150 mM NaCl, 1% NP-40, 1% sodium deoxycholate, 0.1% SDS and protease inhibitor cocktail. Proteins were denatured in the Laemmli sample buffer by heating at 95 °C for 5 min and separated by 7.5% SDS-PAGE gel. Proteins were transferred to a polyvinylidene difluoride membrane (Amersham Pharmacia, Little Chalfont, UK). The membrane was incubated with a primary antibody solution at 4 °C overnight, followed by incubation with a solution of a secondary antibody conjugated to horseradish peroxidase at room temperature for 1 h. The target protein bands were detected by a chemiluminescence method using a picoEPD Western Reagent kit (ELPIS-Biotech, Daejeon, Korea). The blots were analyzed using the NIH Image J program.
Background: Immunoblotting shows a protein as a band on a membrane.

The subject of test [2] is TYR, TYRP1, DCT and MITF mRNA in B16-F10 cells. Briefly: qRT-PCR analysis of melanogenic gene mRNA. It is filed as cell-based, murine. Particulars: 100 nM α-MSH, 12 h, normalized to GAPDH. The protocol: After B16-F10 cells were treated with drug and/or α-MSH, cellular RNA was extracted using an RNeasy kit (Qiagen, Valencia, CA, USA) and the complementary DNA (cDNA) was synthesized by reverse transcription using a High-Capacity cDNA Archive Kit (Applied Biosystems, Foster City, CA, USA). qRT-PCR was conducted using a StepOnePlus™ Real-Time PCR System (Applied Biosystems). The reaction mixture (20 μL) comprised SYBR® Green PCR Master Mix (Applied Biosystems), 60 ng cDNA, and 2 pmol gene-specific primer sets (Macrogen, Seoul, Korea).
The reaction protocol was as follows: initial incubation at 50 °C for 2 min; DNA polymerase activation at 95 °C for 15 min; and annealing and extension at 60 °C for 1 min. In each PCR run, the melting curve was checked to confirm the homogeneity of the PCR product. The mRNA expression levels of the gene of interest were determined using the comparative Ct method, and normalized to the internal reference GAPDH [59]. In this method, Ct is defined as the number of PCR cycles required for the signal to exceed the threshold. Fold changes in the test group compared to the control group were calculated as 2^−ΔΔCt, where ΔΔCt = ΔCt(test) − ΔCt(control) = [Ct(gene, test) − Ct(reference, test)] − [Ct(gene, control) − Ct(reference, control)].
In general terms: Quantitative PCR measures a nucleic acid by following its amplification.

The next test relates to B16-F10 cells. Briefly: Melanin content assay (extracellular and intracellular). Particulars: K8 1–10 µM, 100 nM α-MSH. It is filed as cell-based, murine. The method, then: The intracellular melanin retained in cells and extracellular melanin secreted from cells were separately determined. B16-F10 cells were plated in 6-well plates (1.2 × 10^4 cells per well), cultured for 24 h, treated with a test drug at various concentrations for 60 min, and stimulated with 100 nM α-MSH for 72 h. The conditioned medium was evaluated to determine the extracellular melanin content. Adherent cells were extracted with 10% dimethyl sulfoxide solution containing 1.0 M sodium hydroxide at 60 °C for 60 min, and melanin content in the extract was estimated by measuring the absorbance at 400 nm and normalized to the total protein content of the cells.

A further test deals with TYR. The test can be described thus: In vitro TYR catalytic activity, murine and human TYR given together (abstract). It is filed as biochemical. Particulars: range over human and murine TYR preparations. The protocol: To examine the direct effect of a drug on the catalytic activity of TYR, in vitro experiments were undertaken. Lysate of B16F10 cells stimulated with α-MSH for 24 h was used as a murine TYR preparation. Human TYR preparation was the lysate of human embryonic kidney 293 cells constitutively expressing human TYR (HEK293-TYR). […] The TYR activity assay mixture (200 μL) consisted of 100 mM sodium phosphate buffer (pH 6.8), TYR preparation (40 μg protein), a drug at various concentrations, 1.0 mM L-tyrosine, and 42 μΜ L-DOPA. For enzyme kinetic study, the concentrations of L-tyrosine plus L-DOPA were varied while their relative ratio was kept the same as the standard assay condition. […] The reactions were also performed in the absence of a TYR preparation to correct for the effects of non-enzymatic reactions. Enzyme activity was calculated as follows: activity (% control) = (C−D)/(A−B) × 100, where A and B are the absorbance changes of the control group with and without enzyme, respectively, while C and D are the absorbance changes of the test group with and without enzyme, respectively.

Structures are written as SMILES.

Regarding `O=C(NO)c1ccc(CC(=O)N(CCO)c2ccccc2)cc1` [K8, 4-((hydroxyamino)carbonyl)-N-(2-hydroxyethyl)-N-phenyl-benzeneacetamide], in test [1], the DCT protein level entry was “did not significantly attenuate the increase”, the MITF protein expression entry is “not significantly affected”, the “TRP1 (TYRP1) protein level” value is recorded as “did not significantly attenuate the increase” and the TYR protein level result was “did not significantly attenuate the increase”. In test [2], the “DCT mRNA level” value is given as “not significantly affected”, the “MITF mRNA expression” value was “not significantly affected”, the “TYR mRNA level” value is given as “not significantly affected” and the “TYRP1 mRNA level” value is given as “not significantly affected”. For the same compound, the “intracellular melanin content, normalized for total cellular protein” value with B16-F10 cells (cell extracts) is listed as “suppressed by K8 in a dose-dependent manner”. Also, the “extracellular melanin content, normalized for total cellular protein” value in the test with B16-F10 cells (conditioned medium) is “suppressed by K8 in a dose-dependent manner”. This compound also showed an IC50 in the test with TYR of 1100 to 1500 nM.

What is called IC50 is the concentration that gives 50% inhibition. A low value points to higher potency.
